Test [1] concerns ERK phosphorylation in KYSE-520 cells. The test is described as follows: Phospho-ERK cellular assay. In kind it is cell-based. Particulars: KYSE-520 cells, 2 h at 37° C., phospho-ERK1/2 (Thr202/Tyr204) TR-FRET, read-out: PERK IC50. The procedure, abridged:
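TR-FRET read-out of ERK1/2 Thr202/Tyr204 phosphorylation was taken after overnight antibody incubation at room temperature. Before that, KYSE-520 cells were treated 2 h at 37 °C with compound dilutions and lysed 30 min. Percent inhibition relative to vehicle and cell-free wells was fitted four-parametrically to give IC50.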

The target in test [2] is SHP-2 enzyme (Met1-Leu525) (Homo sapiens (Human), UniProt Q06124). The test is described as follows: SHP2 inhibition enzymatic assay. It counts as biochemical. Particulars: 0.5 nM SHP-2 activated by 500 nM IRS1 peptide, 75 μM DiFMUP substrate; read-out: SHP2wt-IC50. Summed up:
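SHP-2 (Met1-Leu525), 0.5 nM, activated with 500 nM IRS1 bis-phosphopeptide, preincubated 30 min with compounds in HEPES pH 7.2 buffer with 5 mM DTT. 75 μM DiFMUP added for 30 min at room temperature, stopped with bpV; fluorescence read. IC50 from four-parameter logistic fit of % inhibition.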

SMILES strings stand for the structures. Where two headings read alike, the source gives them in different places. Where only a bound is given, the exact number is not on record here.

SHP-2 enzyme (Met1-Leu525), sequence (Q06124 1-525): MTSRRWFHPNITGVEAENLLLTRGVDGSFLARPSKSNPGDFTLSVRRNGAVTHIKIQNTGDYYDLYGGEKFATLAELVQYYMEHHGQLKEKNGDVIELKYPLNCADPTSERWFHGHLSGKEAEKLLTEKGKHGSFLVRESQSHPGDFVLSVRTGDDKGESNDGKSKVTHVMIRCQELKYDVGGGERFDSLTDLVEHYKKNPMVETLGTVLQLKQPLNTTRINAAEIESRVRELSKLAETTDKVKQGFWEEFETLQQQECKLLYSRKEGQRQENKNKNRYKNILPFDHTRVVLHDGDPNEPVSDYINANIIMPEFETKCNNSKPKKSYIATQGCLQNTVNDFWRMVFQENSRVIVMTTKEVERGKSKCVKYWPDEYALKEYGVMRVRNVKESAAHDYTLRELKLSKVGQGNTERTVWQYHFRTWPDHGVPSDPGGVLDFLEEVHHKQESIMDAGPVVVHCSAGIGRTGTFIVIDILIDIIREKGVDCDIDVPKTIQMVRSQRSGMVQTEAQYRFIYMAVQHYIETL

For `Cn1c(=O)ccc2c(-c3n[nH]c4nc(N5CC[C@@H]6[C@H](C5)[C@@]6(CN)c5ccccc5F)cnc34)cccc21` [Example 272, 5-(6-((1S,6R,7R)-7-(aminomethyl)-7-(2-fluorophenyl)-3-azabicyclo[4.1.0]heptan-3-yl)-1H-pyrazolo[3,4-b]pyrazin-3-yl)-1-methylquinolin-2(1H)-one], the IC50 in test [1] (Homo sapiens, KYSE-520, 2 h) was < 1000 nM; in test [2] it was < 500 nM.
Take `CNC(=O)c1ccc(-c2n[nH]c3nc(N4CC[C@@H]5[C@H](C4)[C@@]5(CN)c4ccccc4F)cnc23)c(Cl)c1` [Example 273, 4-(6-((1S,6R,7R)-7-(aminomethyl)-7-(2-fluorophenyl)-3-azabicyclo[4.1.0]heptan-3-yl)-1H-pyrazolo[3,4-b]pyrazin-3-yl)-3-chloro-N-methylbenzamide]: the IC50 is < 1000 nM in test [1] (Homo sapiens, KYSE-520, 2 h) and < 500 nM in test [2].
Turning to `Cn1ccc2c(-c3n[nH]c4nc(N5CC[C@@H]6[C@H](C5)[C@@]6(CN)c5ccccc5F)cnc34)cccc2c1=O` [Example 274, 5-(6-((1S,6R,7R)-7-(aminomethyl)-7-(2-fluorophenyl)-3-azabicyclo[4.1.0]heptan-3-yl)-1H-pyrazolo[3,4-b]pyrazin-3-yl)-2-methylisoquinolin-1(2H)-one], the IC50 was < 1000 nM in test [1] (Homo sapiens, KYSE-520, 2 h) and < 500 nM in test [2].
For the compound `Cc1cc([C@@]2(CN)[C@@H]3CN(c4cnc5c(-c6ccc7nn(C)cc7c6Cl)n[nH]c5n4)C[C@@H]32)no1` [Example 275, ((1R,5S,6r)-3-(3-(4-chloro-2-methyl-2H-indazol-5-yl)-1H-pyrazolo[3,4-b]pyrazin-6-yl)-6-(5-methylisoxazol-3-yl)-3-azabicyclo[3.1.0]hexan-6-yl)methanamine], the values for the IC50 in test [1] and in test [2] were < 1000 nM and < 500 nM, respectively.
Take `NC[C@]1(c2ccccc2F)[C@@H]2CCN(c3cnc4c(-c5ccc(C(N)=O)cc5Cl)n[nH]c4n3)C[C@@H]21` [Example 276, 4-(6-((1S,6R,7R)-7-(aminomethyl)-7-(2-fluorophenyl)-3-azabicyclo[4.1.0]heptan-3-yl)-1H-pyrazolo[3,4-b]pyrazin-3-yl)-3-chlorobenzamide]: the IC50 in test [1] (Homo sapiens, KYSE-520, 2 h) was < 1000 nM; in test [2] it was < 500 nM.
As to `NC[C@]1(c2ccccc2F)[C@@H]2CCN(c3cnc4c(-c5cc(C(=O)O)ccc5Cl)n[nH]c4n3)C[C@@H]21` [Example 277, 3-(6-((1S,6R,7R)-7-(aminomethyl)-7-(2-fluorophenyl)-3-azabicyclo[4.1.0]heptan-3-yl)-1H-pyrazolo[3,4-b]pyrazin-3-yl)-4-chlorobenzoic acid], the IC50 in test [1] (Homo sapiens, KYSE-520, 2 h) is > 5000 nM; in test [2] it was < 500 nM.
`Cn1c(-c2n[nH]c3nc(N4CC[C@@H]5[C@H](C4)[C@@]5(CN)c4ccccc4F)cnc23)ccc(Cl)c1=O` [Example 278, 6-(6-((1S,6R,7R)-7-(aminomethyl)-7-(2-fluorophenyl)-3-azabicyclo[4.1.0]heptan-3-yl)-1H-pyrazolo[3,4-b]pyrazin-3-yl)-3-chloro-1-methylpyridin-2(1H)-one]: the IC50 in test [1] (Homo sapiens, KYSE-520, 2 h) is < 1000 nM; in test [2], < 500 nM.
The corresponding values for `NC[C@]1(c2ccccc2F)[C@@H]2CCN(c3cnc4c(-c5ccc(C(=O)NC6CC6)c6ncccc56)n[nH]c4n3)C[C@@H]21` [Example 279, 5-(6-((1S,6R,7R)-7-(aminomethyl)-7-(2-fluorophenyl)-3-azabicyclo[4.1.0]heptan-3-yl)-1H-pyrazolo[3,4-b]pyrazin-3-yl)-N-cyclopropylquinoline-8-carboxamide] are < 1000 nM and < 500 nM.
The corresponding values for `CC(C)n1cc2c(Cl)c(-c3n[nH]c4nc(N5CC[C@@H]6[C@H](C5)[C@@]6(CN)c5ccccc5F)cnc34)ccc2n1` [Example 280, ((1S,6R,7R)-3-(3-(4-chloro-2-isopropyl-2H-indazol-5-yl)-1H-pyrazolo[3,4-b]pyrazin-6-yl)-7-(2-fluorophenyl)-3-azabicyclo[4.1.0]heptan-7-yl)methanamine] are < 1000 nM and < 500 nM.
On to `NC[C@]1(c2ccccc2F)[C@@H]2CCN(c3cnc4c(-c5cc(C(N)=O)ccc5Cl)n[nH]c4n3)C[C@@H]21` [Example 281, 3-(6-((1S,6R,7R)-7-(aminomethyl)-7-(2-fluorophenyl)-3-azabicyclo[4.1.0]heptan-3-yl)-1H-pyrazolo[3,4-b]pyrazin-3-yl)-4-chlorobenzamide], for which the IC50 in test [1] (Homo sapiens, KYSE-520, 2 h) was > 5000 nM; in test [2], < 500 nM.
Regarding `CS(=O)(=O)NC(=O)c1ccc(-c2n[nH]c3nc(N4CC[C@@H]5[C@H](C4)[C@@]5(CN)c4ccccc4F)cnc23)c2cccnc12` [Example 282, 5-(6-((1S,6R,7R)-7-(aminomethyl)-7-(2-fluorophenyl)-3-azabicyclo[4.1.0]heptan-3-yl)-1H-pyrazolo[3,4-b]pyrazin-3-yl)-N-(methylsulfonyl)quinoline-8-carboxamide], the IC50 in test [1] (Homo sapiens, KYSE-520, 2 h) is < 1000 nM; in test [2], < 500 nM.
As to `Cc1csc([C@@]2(CN)[C@@H]3CN(c4cnc5c(-c6ccc(-n7cccn7)cc6Cl)n[nH]c5n4)C[C@@H]32)n1` [Example 283, ((1R,5S,6r)-3-(3-(2-chloro-4-(1H-pyrazol-1-yl)phenyl)-1H-pyrazolo[3,4-b]pyrazin-6-yl)-6-(4-methylthiazol-2-yl)-3-azabicyclo[3.1.0]hexan-6-yl)methanamine], the IC50 was < 1000 nM in test [1] (Homo sapiens) and < 500 nM in test [2].
On to `NC[C@]1(c2ccccc2F)[C@@H]2CCN(c3cnc4c(-c5ccnc(-c6cncnc6)c5Cl)n[nH]c4n3)C[C@@H]21` [Example 284, ((1S,6R,7R)-3-(3-(3-chloro-2-(pyrimidin-5-yl)pyridin-4-yl)-1H-pyrazolo[3,4-b]pyrazin-6-yl)-7-(2-fluorophenyl)-3-azabicyclo[4.1.0]heptan-7-yl)methanamine], for which the IC50 in test [1] (Homo sapiens, KYSE-520, 2 h) is < 1000 nM; in test [2], < 500 nM.
With `NC[C@]1(c2ccccc2F)[C@@H]2CCN(c3cnc4c(-c5ccc(-c6nn[nH]n6)cc5Cl)n[nH]c4n3)C[C@@H]21` [Example 285, ((1S,6R,7R)-3-(3-(2-chloro-4-(2H-tetrazol-5-yl)phenyl)-1H-pyrazolo[3,4-b]pyrazin-6-yl)-7-(2-fluorophenyl)-3-azabicyclo[4.1.0]heptan-7-yl)methanamine], the IC50 is > 5000 nM in test [1] (Homo sapiens, KYSE-520, 2 h) and < 500 nM in test [2].
As to `CN(C)C(=O)C1(CN)C2CCN(c3cnc4c(-c5ccc6nn(C)cc6c5Cl)n[nH]c4n3)CC21` (stereo not drawn) [Example 286, 7-(aminomethyl)-3-(3-(4-chloro-2-methyl-2H-indazol-5-yl)-1H-pyrazolo[3,4-b]pyrazin-6-yl)-N,N-dimethyl-3-azabicyclo[4.1.0]heptane-7-carboxamide], the IC50 in test [1] (Homo sapiens, KYSE-520, 2 h) was > 5000 nM; in test [2], < 500 nM.
With `CNC(=O)C1(CN)C2CCN(c3cnc4c(-c5ccc6nn(C)cc6c5Cl)n[nH]c4n3)CC21` (stereo not drawn) [Example 287, 7-(aminomethyl)-3-(3-(4-chloro-2-methyl-2H-indazol-5-yl)-1H-pyrazolo[3,4-b]pyrazin-6-yl)-N-methyl-3-azabicyclo[4.1.0]heptane-7-carboxamide], the IC50 in test [1] (Homo sapiens, KYSE-520, 2 h) was < 1000 nM; in test [2], < 500 nM.
For the compound `Cn1c(=O)[nH]c2cc(-c3n[nH]c4nc(N5CC[C@@H]6[C@H](C5)[C@@]6(CN)c5ccccc5F)cnc34)ccc21` [Example 289, 5-(6-((1S,6R,7R)-7-(aminomethyl)-7-(2-fluorophenyl)-3-azabicyclo[4.1.0]heptan-3-yl)-1H-pyrazolo[3,4-b]pyrazin-3-yl)-1-methyl-1,3-dihydro-2H-benzo[d]imidazol-2-one], the IC50 is < 1000 nM in test [1] (Homo sapiens, KYSE-520, 2 h) and < 500 nM in test [2].
Regarding `NC[C@]1(c2ccccc2F)[C@@H]2CCN(c3cnc4c(-c5ccc6ncncc6c5)n[nH]c4n3)C[C@@H]21` [Example 290, ((1S,6R,7R)-7-(2-fluorophenyl)-3-(3-(quinazolin-6-yl)-1H-pyrazolo[3,4-b]pyrazin-6-yl)-3-azabicyclo[4.1.0]heptan-7-yl)methanamine], the IC50 in test [1] (Homo sapiens, KYSE-520, 2 h) is < 1000 nM; in test [2], < 500 nM.
On to `Cn1cc2c(Cl)c(-c3n[nH]c4nc(N5CC[C@@H]6[C@H](C5)[C@@]6(CN)c5cc(F)cc(F)c5)cnc34)ccc2n1` [Example 291, ((1S,6R,7R)-3-(3-(4-chloro-2-methyl-2H-indazol-5-yl)-1H-pyrazolo[3,4-b]pyrazin-6-yl)-7-(3,5-difluorophenyl)-3-azabicyclo[4.1.0]heptan-7-yl)methanamine], for which the IC50 is < 1000 nM in test [1] (Homo sapiens, KYSE-520, 2 h) and < 500 nM in test [2].
On to `COc1cc(-c2n[nH]c3nc(N4CC[C@@H]5[C@H](C4)[C@@]5(CN)c4ccccc4F)cnc23)cc2[nH]c(=O)[nH]c12` [Example 292, 6-(6-((1S,6R,7R)-7-(aminomethyl)-7-(2-fluorophenyl)-3-azabicyclo[4.1.0]heptan-3-yl)-1H-pyrazolo[3,4-b]pyrazin-3-yl)-4-methoxy-1,3-dihydro-2H-benzo[d]imidazol-2-one], for which the IC50 was > 5000 nM in test [1] (Homo sapiens, KYSE-520, 2 h) and < 500 nM in test [2].
The corresponding values for `NC[C@]1(c2ccccc2F)[C@@H]2CCN(c3cnc4c(-c5cccc6c5CCC(=O)N6)n[nH]c4n3)C[C@@H]21` [Example 293, 5-(6-((1S,6R,7R)-7-(aminomethyl)-7-(2-fluorophenyl)-3-azabicyclo[4.1.0]heptan-3-yl)-1H-pyrazolo[3,4-b]pyrazin-3-yl)-3,4-dihydroquinolin-2(1H)-one] are < 1000 nM and < 500 nM.

The values above are taken from patent US20240109900A1, “AZABICYCLIC SHP2 INHIBITORS” (IRBM S.P.A., priority 2021, published 2024).
